Measured values published in patent US6858638B2, “Substituted indazoles, compositions containing them, method of production and use” (Aventis Pharma S.A., priority 2002, dated 2005).

How the values were obtained:
human KDR enzyme = biological target: T1, human KDR enzyme (Homo sapiens, UniProt P35968); assay: KDR substrate (PLCγ) phosphorylation, scintillation assay; assay type: biochemical; conditions: 10 μM; read-out: KDR % inhib at 10 μM
T1 construct: The cytoplasmic domain of the human KDR enzyme; GST; made in house; host or cells: SF21 insect cells (baculovirus)
T1 sequence (P35968 786-1356 limits assumed): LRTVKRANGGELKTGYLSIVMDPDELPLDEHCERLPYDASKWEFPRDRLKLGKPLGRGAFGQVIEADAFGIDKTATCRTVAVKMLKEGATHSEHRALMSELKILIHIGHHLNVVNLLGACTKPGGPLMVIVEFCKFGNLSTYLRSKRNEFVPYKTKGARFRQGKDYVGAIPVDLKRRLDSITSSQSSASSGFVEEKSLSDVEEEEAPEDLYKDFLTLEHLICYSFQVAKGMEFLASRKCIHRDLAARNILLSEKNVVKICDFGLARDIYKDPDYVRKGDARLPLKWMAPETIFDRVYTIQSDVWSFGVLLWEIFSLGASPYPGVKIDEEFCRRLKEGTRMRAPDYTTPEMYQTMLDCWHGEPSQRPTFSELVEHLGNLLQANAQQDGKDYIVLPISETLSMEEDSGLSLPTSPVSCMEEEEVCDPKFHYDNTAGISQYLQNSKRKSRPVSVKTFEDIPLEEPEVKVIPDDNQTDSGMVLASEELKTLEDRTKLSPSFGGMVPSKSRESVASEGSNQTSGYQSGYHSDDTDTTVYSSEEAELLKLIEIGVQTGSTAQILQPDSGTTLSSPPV
Summary of the method: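 GST-fused human KDR cytoplasmic domain from SF21 cells (about 60% pure, 100 ng) phosphorylated 2 μg of GST-PLCγ SH2-SH3 fragment. The trigger solution held γ33P-ATP with 2 μM cold ATP, in MOPS buffer pH 7.2 with Mg2+, Mn2+, vanadate and NaF. Reactions ran 1 h at 37 °C, were stopped with EDTA and counted by scintillation; results are % inhibition versus the no-compound control.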

human Tie2 = biological target: T2, human Tie2 (Homo sapiens, UniProt Q02763); assay: Tie2 phosphorylation of PLC, FlashPlate radioactivity assay; assay type: biochemical; conditions: read-out: TIE2 % inhib at 10 μM
T2 construct: amino acids of the intracellular domain 776-1124; made in house; host or cells: baculovirus expression system (vector pFastBacGT)
T2 sequence (Q02763 776-1124): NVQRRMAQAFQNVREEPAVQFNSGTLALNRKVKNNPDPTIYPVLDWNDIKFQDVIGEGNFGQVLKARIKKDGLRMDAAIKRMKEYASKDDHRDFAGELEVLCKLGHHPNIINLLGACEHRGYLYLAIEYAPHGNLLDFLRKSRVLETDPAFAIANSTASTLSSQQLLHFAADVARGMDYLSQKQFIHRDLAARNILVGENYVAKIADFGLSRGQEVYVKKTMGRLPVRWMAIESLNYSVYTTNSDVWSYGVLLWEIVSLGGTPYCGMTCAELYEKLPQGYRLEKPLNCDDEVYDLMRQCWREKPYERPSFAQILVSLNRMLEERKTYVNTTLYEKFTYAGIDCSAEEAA
Method: The coding sequence of human Tie2 corresponding to the amino acids of the intracellular domain 776-1124 was generated by PCR using the cDNA isolated from human placenta as model. This sequence was introduced into a baculovirus expression vector pFastBacGT in the form of a GST fusion protein.
The inhibitory effect of the molecules is determined in an assay of phosphorylation of PLC by Tie2 in the presence of GST-Tie2 purified to approximately 80% homogeneity. The substrate is composed of the SH2-SH3 fragments of PLC exprressed in the form of a GST fusion protein.
The kinase activity of Tie2 is measured in a 20 mM MOPS buffer, pH 7.2, containing 10 mM MgCl2, 10 mM MnCl2, 1 mM DTT and 10 mM of glycerophosphate. A reaction mixture composed of 70 μl of kinase buffer containing 100 ng of GST-Tie2 enzyme per well is placed in a FlashPlate 96-well plate kept on ice. 10 μl of the test molecule diluted in DMSO at a maximum concentration of 10% are then added. For a given concentration, each measurement is carried out in quadruplicate. The reaction is initiated by adding 20 μl of solution containing 2 μg of GST-PLC, 2 μM of cold ATP and 1 μCi of ^33P[ATP]. After incubation for 1 hour at 37° C., the reaction is stopped by adding 1 volume (100 μl) of 200 mM EDTA. After removing the incubation buffer, the wells are washed three times with 300 μl of PBS. The radioactivity is measured on a Wallac MicroBeta 1450.
The inhibition of the Tie2 activity is calculated and expressed as percentage inhibition compared to the control activity determined in the absence of compound.

c-Src protein = assay: Src kinase phosphorylation of biotinylated cdc2 substrate, fluorescence (DELFIA); assay type: biochemical, human
Method: The inhibition of the Src kinase is evaluated by measuring the phosphorylation of the biotinylated cdc2 substrate (Pierce) detected by fluorescence (DELFIA) using an antiphosphotyrosine antibody labeled with Europium, in 96-well Wallac plates. The c-Src protein used is a recombinant human protein produced in Baculovirus, comprising the SH3 and SH2 and the catalytic domains. The enzyme, the substrate and the various concentrations of test compounds are placed in the well in a 50 mM Tris buffer containing 10 mM MgCl2. The reaction is initiated by adding 10 μM of ATP. After incubation for 60 minutes at 30° C., the reaction is stopped by adding 75 mM EDTA. 50 μl are taken from each well and transferred into a plate coated with streptavidin. After incubation for 30 minutes at 25° C., the wells are washed with a washing buffer (Wallac) and then the antiphosphotyrosine antibody (PY20-Europium [Perkin Elmer]) is added in a volume of 75 μl. The plate is incubated for 30 minutes at 25° C. and then an “Enhancer” solution (Wallac) is added before reading the fluorescence using a fluorimeter (Perkin Elmer). The background noise is evaluated in triplicate in wells containing the substrate and the antibody in the absence of enzyme. The activity of the enzyme is measured (in triplicate) in the wells containing all the reagents in the absence of compound. The inhibition of the Src activity is expressed as percentage inhibition of the activity of the control determined in the absence of compound. The compound PP2 (Calbiochem) is included at various concentrations in each experiment as an inhibition control.

CS(=O)(=O)c1ccccc1S(=O)(=O)Nc1ccc2[nH]nc(Cl)c2c1 [Example 1, N-(3-Chloro-1H-indazol-5-yl)-2-methylsulfonylbenzenesulfonamide]
inhibition at 10 µM (human KDR enzyme): 7%
inhibition at 10 µM (human Tie2): 18%

O=S(=O)(Nc1ccc2[nH]nc(Cl)c2c1)c1cccc(F)c1 [Example 3, N-(3-Chloro-1H-indazol-5-yl)-3-fluorobenzenesulfonamide]
inhibition at 10 µM (human KDR enzyme): 22%
inhibition at 10 µM (human Tie2): 15%

O=S(=O)(Nc1ccc2[nH]nc(-c3ccccc3)c2c1)c1cccc(F)c1 [Example 6, 3-Fluoro-N-(3-phenyl-1H-indazol-5-yl)benzenesulfonamide]
inhibition at 10 µM (human KDR enzyme): 85%
SRC % inhib at 10 μM (c-Src protein): 55%
inhibition at 10 µM (human Tie2): 74%
melting point: 200 °C

CS(=O)(=O)c1ccccc1S(=O)(=O)Nc1ccc2[nH]nc(-c3ccccc3)c2c1 [Example 7, 2-Methylsulfonyl-N-(3-phenyl-1H-indazol-5-yl)benzenesulfonamide]
inhibition at 10 µM (human KDR enzyme): 70%
SRC % inhib at 10 μM (c-Src protein): 89%
inhibition at 10 µM (human Tie2): 86%
melting point: 223 °C

O=S(=O)(Nc1ccc2[nH]nc(-c3ccccc3)c2c1)c1ccc(Cl)c(Cl)c1 [Example 8, 3,4-Dichloro-N-(3-phenyl-1H-indazol-5-yl)benzenesulfonamide]
inhibition at 10 µM (human KDR enzyme): 81%
inhibition at 10 µM (human Tie2): 56%
melting point: 216 °C

Cc1n[nH]c2ccc(NS(=O)(=O)c3cccc(F)c3)cc12 [Example 9, 3-Fluoro-N-(3-methyl-1H-indazol-5-yl)benzenesulfonamide]
inhibition at 10 µM (human KDR enzyme): 18%
inhibition at 10 µM (human Tie2): 29%
melting point: 120 °C

Cc1n[nH]c2ccc(NS(=O)(=O)c3ccccc3S(C)(=O)=O)cc12 [Example 10, 2-Methylsulfonyl-N-(3-methyl-1H-indazol-5-yl)benzenesulfonamide]
inhibition at 10 µM (human KDR enzyme): 20%
inhibition at 10 µM (human Tie2): 33%

CS(=O)(=O)c1ccccc1S(=O)(=O)Nc1ccc2[nH]ncc2c1 [Example 13, 2-Methylsulfonyl-N-(1H-indazol-5-yl)benzenesulfonamide]
inhibition at 10 µM (human KDR enzyme): 0%
inhibition at 10 µM (human Tie2): 22%
melting point: 245 °C

CS(=O)(=O)c1ccccc1S(=O)(=O)Nc1ccc2[nH]nc(-c3ccc(Cl)cc3)c2c1 [Example 30, N-[3-(4-Chlorophenyl)-1H-indazol-5-yl]-2-methylsulfonylbenzenesulfonamide]
inhibition at 10 µM (human KDR enzyme): 85%
SRC % inhib at 10 μM (c-Src protein): 72%
melting point: 242 °C

CS(=O)(=O)c1ccccc1S(=O)(=O)Nc1ccc2[nH]nc(-c3ccc[nH]3)c2c1 [Example 60, 2-Methylsulfonyl-N-[3-(1H-pyrrol-2-yl)-1H-indazol-5-yl]benzenesulfonamide]
inhibition at 10 µM (human KDR enzyme): 64%
SRC % inhib at 10 μM (c-Src protein): 98%
melting point: 255 °C

CS(=O)(=O)c1ccccc1S(=O)(=O)Nc1ccc2[nH]nc(-c3cccc(N)c3)c2c1 [Example 62, N-[3-(3-Aminophenyl)-1H-indazol-5-yl]-2-methylsulfonylbenzenesulfonamide]
inhibition at 10 µM (human KDR enzyme): 74%
SRC % inhib at 10 μM (c-Src protein): 95%
melting point: 220 °C

CS(=O)(=O)c1ccccc1S(=O)(=O)Nc1ccc2[nH]nc(-c3cc4ccccc4s3)c2c1 [Example 65, N-(3-Benzo[b]thiophen-2-yl-1H-indazol-5-yl)-2-methylsulfonylbenzenesulfonamide]
inhibition at 10 µM (human KDR enzyme): 73%
SRC % inhib at 10 μM (c-Src protein): 96%
melting point: 270 °C

O=[N+]([O-])c1ccccc1S(=O)(=O)Nc1ccc2[nH]nc(-c3ccccc3)c2c1 [Example 113, 2-Nitro-N-(3-phenyl-1H-indazol-5-yl)benzenesulfonamide]
inhibition at 10 µM (human KDR enzyme): 88%
SRC % inhib at 10 μM (c-Src protein): 23%

O=S(=O)(Nc1ccc2[nH]nc(-c3ccccc3)c2c1)c1ccc(F)cc1 [Example 117, 4-Fluoro-N-(3-phenyl-1H-indazol-5-yl)-benzenesulfonamide]
inhibition at 10 µM (human KDR enzyme): 93%
SRC % inhib at 10 μM (c-Src protein): 39%

COc1ccc(OC)c(S(=O)(=O)Nc2ccc3[nH]nc(-c4ccccc4)c3c2)c1 [Example 131, 2,5-Dimethoxy-N-(3-phenyl-1H-indazol-5-yl)-benzenesulfonamide]
inhibition at 10 µM (human KDR enzyme): 95%
SRC % inhib at 10 μM (c-Src protein): 36%

Cc1ccccc1S(=O)(=O)Nc1ccc2[nH]nc(-c3ccccc3)c2c1 [Example 132, 2-Methyl-N-(3-phenyl-1H-indazol-5-yl)-benzenesulfonamide]
inhibition at 10 µM (human KDR enzyme): 96%
SRC % inhib at 10 μM (c-Src protein): 18%

O=C(O)c1cccc(S(=O)(=O)Nc2ccc3[nH]nc(-c4ccccc4)c3c2)c1 [Example 133, 3-(3-Phenyl-1H-indazol-5-ylsulfamoyl)benzoic acid]
inhibition at 10 µM (human KDR enzyme): 96%
SRC % inhib at 10 μM (c-Src protein): 24%

O=S(=O)(Nc1ccc2[nH]nc(-c3ccccc3)c2c1)c1ccccc1F [Example 134, 2-Fluoro-N-(3-phenyl-1H-indazol-5-yl)-benzenesulfonamide]
inhibition at 10 µM (human KDR enzyme): 90%
SRC % inhib at 10 μM (c-Src protein): 44%

O=S(=O)(Nc1ccc2[nH]nc(-c3ccccc3)c2c1)c1ccc(Cl)s1 [Example 135, 5-Chloro-N-(3-phenyl-1H-indazol-5-yl)thiophene-2-sulfonamide]
inhibition at 10 µM (human KDR enzyme): 91%
SRC % inhib at 10 μM (c-Src protein): 54%

Cc1cccc(S(=O)(=O)Nc2ccc3[nH]nc(-c4ccccc4)c3c2)c1 [Example 138, 3-Methyl-N-(3-phenyl-1H-indazol-5-yl)-benzenesulfonamide]
inhibition at 10 µM (human KDR enzyme): 92%
SRC % inhib at 10 μM (c-Src protein): 39%

O=S(=O)(Nc1ccc2[nH]nc(-c3ccccc3)c2c1)c1ccc(F)c(F)c1 [Example 152, 3,4-Difluoro-N-(3-phenyl-1H-indazol-5-yl)-benzenesulfonamide]
inhibition at 10 µM (human KDR enzyme): 93%
SRC % inhib at 10 μM (c-Src protein): 43%

N#Cc1cccc(S(=O)(=O)Nc2ccc3[nH]nc(-c4ccccc4)c3c2)c1 [Example 154, 3-Cyano-N-(3-phenyl-1H-indazol-5-yl)-benzenesulfonamide]
inhibition at 10 µM (human KDR enzyme): 96%
SRC % inhib at 10 μM (c-Src protein): 44%

COc1cccc(S(=O)(=O)Nc2ccc3[nH]nc(-c4ccccc4)c3c2)c1 [Example 156, 3-Methoxy-N-(3-phenyl-1H-indazol-5-yl)-benzenesulfonamide]
inhibition at 10 µM (human KDR enzyme): 94%
SRC % inhib at 10 μM (c-Src protein): 57%

O=S(=O)(Nc1ccc2[nH]nc(-c3ccccc3)c2c1)c1cc(F)cc(F)c1 [Example 158, 3,5-Difluoro-N-(3-phenyl-1H-indazol-5-yl)-benzenesulfonamide]
inhibition at 10 µM (human KDR enzyme): 96%
SRC % inhib at 10 μM (c-Src protein): 75%
